We go through four molecules from patent US20230226100A1, “CYCLODEXTRIN BASED ANTI-MICROBIAL THERAPY” (University of Southern California, priority 2020, published 2023).

Assay type in all cases: cell-based
The subject of one data set is A549. Description: Alamar Blue chemical dye penetration through barrier, A549. The protocol: (§1) Studies test efficacy barrier to prevent chemical dye penetration. We used a resurazine dye that can penetrate across cellular membranes where it is […] to form a purple color and is quantifiable using fluorescence or visible light. Chemical exposure used Alamar Blue which was incubated for 4 hours. The ability of the barrier formulation to prevent chemical penetration was measured at 570 nm and confirmed using fluorescence intensity (560/590 nm) readings. A concentration dependent response to HPBCD was observed over four hours of incubation. The chemical dye penetration was reduced with increasing percent beta cyclodextrin across all timepoints (FIG. 5).
The ability to block chemical exposure was also conducted in the other cyclodextrins namely hydroxypropyl gamma cyclodextrin (HPGCD), sulfonylbutyl ethyl beta cyclodextrins (SBEBCD), and randomly methylated methyl beta cyclodextrins (CRYSMEB) and incubating over 4 hours. The ability of the barrier formulations to prevent chemical penetration was measured at an absorbance of 570 nm and confirmed using fluorescence intensity (560/590 nm) readings. […] The addition of HEC improved the ability to prevent chemical penetration (Table 2). Although the data is unexpected, it allows for further probe into the effect of these cyclodextrin derivatives on viral particles which may be bigger and more hydrophobic.
(§2) To determine the ability of the candidate nanoscale barrier to prevent chemical penetration, epithelial cells (e.g., HEK293T, A549, Vero-E6 ACE2) were seeded at 1×10^4 cells per well and incubated in DMEM till confluence. Cyclodextrin-based formation candidates were tested at various concentrations from 0 to 20% was added at varying concentrations (% w/v) and incubated for 0.5 h prior to the addition of the Alamar Blue. Alamar Blue is able to penetrate the cell, where viable cells are able to reduce the resazurin-based solution to quantitatively measure level of penetration.
On the technique in general: Resazurin is reduced to fluorescent resorufin, in cell work by metabolically active cells.

The next data set has as its system A549 cells. Description: Safety of barriers: A549 cell morphology. The note with it: 5% concentrations; incubated 1 h; 10× magnification. The method, then:
During protection of mucocutaneous linings, barriers will be exposed repeatedly due to frequent dosing. A critical criterion for selecting the right cyclodextrin for a nanoformulation barrier usable in this application is the safety of the cyclodextrin type. A549 cells were seeded at 4×10^4 cells per well and grown to confluence. Cyclodextrin-based formation candidates were tested at 5% concentrations and incubated for 1 h prior to the addition. The barrier was then replaced with media for evaluation. Pictures were taken for at least five field views at 10× magnification.

The test system of another data set is HEK293T. In words: Alamar Blue chemical dye penetration through barrier, HEK293T. The protocol:
as §1, §2

Another data set deals with Vero-E6 ACE2. In words: Alamar Blue chemical dye penetration through barrier, Vero-E6 ACE2. The method, then: as §1, §2
In data set [1] the test system is pLV[Exp]-Puro-CMV>EGFP lentivirus. Description: EGFP lentivirus infection of HEK293T cells in presence of barrier. The method, then:
To simulate viral infection, we used lentivirus that has green fluorescent protein (GFP) incorporated into its gene. Lentivirus are designed to be highly efficient to transfect epithelial cells such as HEK293T. The effect of HPBCD barrier to present viral infection was evaluated using a concentration escalation study, where HPBCD ranged from 0 to 25% (w/v). In this study, we used a pLV[Exp]-Puro-CMV>EGFP lentivirus to infect HEK293T.
Human muco-ciliary deposition and clearance of exogenous substances occurs in 30 minutes as determined through real time methodology (Thrall et al., Inhalation Toxicology, 2003. 15(6): p. 523-538). Subsequently the EGFP lentivirus was incubated in the presence and absence of the HPBCD barrier for reduced time periods (0.5 h and 2 h) to reflect applicability of a HPBCD nasal spray. After the incubation period, barriers were removed, and cells were washed with 1×PBS before replacement with complete cell culture medium. 24 hours post-incubation at 5% CO2 and 37 degrees C., fluorescence imaging was conducted using the Biotek Cytation 5 imaging device in which 4×GFP images were taken. […] After 30 minutes of incubation with the virus, there is 50% reduction of viral infectivity as measured by fluorescence signal using 5% HPBCD.
To test the ability to prevent viral Epithelial cells (e.g., HEK293T, A549, Vero-E6 ACE2) were used a models chemical and viral infections. Cells were seeded onto 96-well plates at a density of 10^4 cells per well and incubated in DMEM (phenol red free) with 10% FBS and 1% non-essential ammino acids (NEAA). Cells were allowed to attach and grown to confluence to allow for cell polarization prior to experimentation.
Cyclodextrin was added at varying concentrations (% w/v) and incubated for 0.5 h prior to the addition of the virus. Polybrene added at a final concentration of 5 ug/mL to promote viral uptake. Cells were then infected with pLV[Exp]-Puro-CMV>EGFP lentivirus and incubated at 37° C., 5% CO2 for 0.5, 2, or 24 h depending upon the experimental setup. After the incubation time, the beta cyclodextrin solution was removed and cells washed with 1×PBS twice prior to the addition of complete growth medium (DMEM). GFP lentivirus was imaged using the Cytation 5 (Biotek) and relative fluorescence quantified using the Synergy H1 microplate reader (Biotek).

The mark [2] stands for this setting: Table 2, confluent A549, 2.5% cyclodextrin (+ HEC: 0.188% HEC), 2 hr, negative values = increase in fluorescence intensity.
Setting [3] is: Table 2, confluent A549, 2.5% cyclodextrin (+ HEC: 0.188% HEC), 4 hr, negative values = increase in fluorescence intensity.
Setting [4] is: Table 2, confluent A549, 5% cyclodextrin (+ HEC: 0.375% HEC), 2 hr, negative values = increase in fluorescence intensity.
[5] abbreviates: Table 2, confluent A549, 5% cyclodextrin (+ HEC: 0.375% HEC), 4 hr, negative values = increase in fluorescence intensity.
Setting [6] is: Table 2, confluent A549, 10% cyclodextrin (+ HEC: 0.75% HEC), 2 hr, negative values = increase in fluorescence intensity.
[7] abbreviates: Table 2, confluent A549, 10% cyclodextrin (+ HEC: 0.75% HEC), 4 hr, negative values = increase in fluorescence intensity.
Setting [8] is: 2.5% HPBCD (Combination: + 0.188% HEC), 2 hr.
Setting [9] is: 2.5% HPBCD (Combination: + 0.188% HEC), 4 hr.
[10] abbreviates: 5% HPBCD (Combination: + 0.375% HEC), 2 hr.
[11] abbreviates: 5% HPBCD (Combination: + 0.375% HEC), 4 hr.
Setting [12] is: 10% HPBCD (Combination: + 0.75% HEC), 2 hr.
The mark [13] stands for this setting: 10% HPBCD (Combination: + 0.75% HEC), 4 hr.
The mark [14] stands for this setting: confluent A549, incubation over 4 hours.

With “crystalline methylated beta-cyclodextrin [CRYSMEB]”, in the data set with A549 (A549, across all timepoints), the “chemical dye penetration (in words)” value is recorded as “reduced in a dose-dependent manner”. Further, the “Percent Reduction Compared to No Barrier Treatment (Mean ± SD)” value in the data set on A549 (setting [2]) worked out at 36.0 ± 2.3%; in the data set with A549 (setting [3]), 35.3 ± 1.9%; in the data set with A549 (setting [4]), 47.9 ± 0.8%; with A549 (setting [5]), 52.3 ± 2.6%; with A549 (setting [6]), 58.5 ± 1.4%; in the data set with A549 (setting [7]) it was 67.6 ± 2.3%. Besides, in the data set on A549 cells, the “A549 cell morphology / cell death” value was “cellular death and cellular morphological changes”.

`CC(O)COC[C@H]1O[C@@H]2O[C@H]3[C@H](O)[C@@H](O)[C@@H](O[C@H]4[C@H](O)[C@@H](O)[C@@H](O[C@H]5[C@H](O)[C@@H](O)[C@@H](O[C@H]6[C@H](O)[C@@H](O)[C@@H](O[C@H]7[C@H](O)[C@@H](O)[C@@H](O[C@H]8[C@H](O)[C@@H](O)[C@@H](O[C@H]1[C@H](O)[C@H]2O)O[C@@H]8COCC(C)O)O[C@@H]7COCC(C)O)O[C@@H]6COCC(C)O)O[C@@H]5COCC(C)O)O[C@@H]4COCC(C)O)O[C@@H]3COCC(C)O` (stereo partly drawn) [HPBCD, (2-Hydroxypropyl)-Beta-Cyclodextrin]: the “Percent Reduction Compared to No Barrier Treatment (Mean ± SD)” value with A549 (A549, 2.5% HPBCD (Combination: + 0.188% HEC), 2 hr) was 82.5 ± 1.4%; in the data set with A549 (A549, 2.5% HPBCD (Combination: + 0.188% HEC), 4 hr), 66.9 ± 1.9%; in the data set on A549 (A549, 5% HPBCD (Combination: + 0.375% HEC), 2 hr), 88.5 ± 0.7%; in the data set on A549 (A549, 5% HPBCD (Combination: + 0.375% HEC), 4 hr), 81.5 ± 0.7%; in the data set with A549 (A549, 10% HPBCD (Combination: + 0.75% HEC), 2 hr) it was 89.3 ± 0.6%; with A549 (A549, 10% HPBCD (Combination: + 0.75% HEC), 4 hr), 82.9 ± 0.9%. In addition, the “Percent Reduction Compared to No Barrier Treatment (Mean ± SD)” value in the data set on HEK293T (setting [8]) was determined as 70.4 ± 1.7%; with HEK293T (setting [9]) it was 71.7 ± 0.8%; with HEK293T (setting [10]) it was 77.5 ± 0.6%; in the data set with HEK293T (setting [11]) it was 80.4 ± 0.8%; in the data set with HEK293T (setting [12]), 79.8 ± 0.6%; in the data set on HEK293T (setting [13]), 84.3 ± 0.6%. The “Percent Reduction Compared to No Barrier Treatment (Mean ± SD)” value stood at 62.8 ± 2.0% with Vero-E6 ACE2 (setting [8]); 67.1 ± 1.8% with Vero-E6 ACE2 (setting [9]); 70.2 ± 1.2% in the data set with Vero-E6 ACE2 (setting [10]); 76.9 ± 0.6% in the data set with Vero-E6 ACE2 (setting [11]); 73.5 ± 1.2% with Vero-E6 ACE2 (setting [12]); 82.5 ± 0.9% in the data set on Vero-E6 ACE2 (setting [13]). Besides, the “chemical dye (Alamar blue) penetration, relative fluorescence intensity vs no treatment” value in the data set with HEK293T (FIG. 5, P<0.01) is “statistically significant reduction”. The “viral infectivity (GFP expressing lentiviruses)” value in data set [1] (5-20% HPBCD alone) is recorded as “able to reduce viral infectivity”. In addition, the “signs of lentivirus infection” value in data set [1] (20% HPBCD alone as a barrier) is reported as “No signs of lentivirus infection”. Also, in data set [1] (0.5 h and 2 h incubation, p<0.05 and p<0.01 respectively), the “infectivity in HEK cells” value was “concentration dependent decrease in infectivity”. For the same molecule, in data set [1] (HEK293T, 5% HPBCD, 30 minutes of incubation with the virus), the “reduction of viral infectivity as measured by fluorescence signal” value is listed as 50%. Also, in data set [1] (HEK293T, MOI of 5, 6 hours, 10% and 20% HPBCD, p≤0.01), the lentivirus infectivity result is reported as “reduced lentivirus infectivity”. In addition, the “A549 cell morphology / cell death” value in the data set with A549 cells is listed as “No significant changes in cellular morphology or cell death”.

On to “sulfobutyl ether-beta-cyclodextrin [SBEBCD]”, for which the “Percent Reduction Compared to No Barrier Treatment (Mean ± SD)” value in the data set with A549 (setting [2]) is reported as 10.7 ± 2.57%; in the data set with A549 (setting [3]) it was −244.5 ± 3.0%; in the data set on A549 (setting [4]), 39.5 ± 1.2%; in the data set on A549 (setting [5]) it was −218.2 ± 13.2%; in the data set on A549 (setting [6]), 51.3 ± 2.4%; in the data set on A549 (setting [7]), −108.2 ± 19.5%. Also, the “chemical dye penetration (in words)” value is “dose-dependent reduction in chemical dye penetration” in the data set with A549 (confluent A549, 2 h timepoint) and “enhanced chemical dye penetration” in the data set with A549 (setting [14]).

With “2-Hydroxypropyl-Gamma-cyclodextrin [HPGCD]”, the “Percent Reduction Compared to No Barrier Treatment (Mean ± SD)” value in the data set on A549 (setting [2]) is listed as −89.9 ± 3.8%; with A549 (setting [3]) it was −244.5 ± 3.0%; with A549 (setting [4]) it was −46.7 ± 2.4%; in the data set with A549 (setting [5]), −210.66 ± 3.0%; in the data set with A549 (setting [6]) it was −13.1 ± 1.4%; in the data set on A549 (setting [7]), −97.0 ± 2.1%. Moreover, the “chemical dye penetration (in words)” value in the data set with A549 (setting [14]) is reported as “enhanced chemical dye penetration”.
